# Laboratory results taken from PubChem BioAssay (NCI).
#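 Compound exposure: 48 hours, 5 concentrations, 96-well plates. TGI is the concentration that stops growth completely.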
# Assays:
# Test in all cases: DTP human tumour cell line panel, 48 h
# 786-0 renal = system: 786-0 renal
# A498 renal = system: A498 renal
# A549 NSCLC = system: A549 NSCLC
# ACHN renal = system: ACHN renal
# BT-549 breast = system: BT-549 breast
# CAKI-1 renal = system: CAKI-1 renal
# CCRF-CEM leukemia = system: CCRF-CEM leukemia
# COLO 205 colon = system: COLO 205 colon
# DU-145 prostate = system: DU-145 prostate
# EKVX NSCLC = system: EKVX NSCLC
# HCC-2998 colon = system: HCC-2998 colon
# HCT-15 colon = system: HCT-15 colon
# HL-60(TB) leukemia = system: HL-60(TB) leukemia
# HOP-62 NSCLC = system: HOP-62 NSCLC
# HOP-92 NSCLC = system: HOP-92 NSCLC
# KM12 colon = system: KM12 colon
# LOX IMVI melanoma = system: LOX IMVI melanoma
# M14 melanoma = system: M14 melanoma
# MCF7 breast = system: MCF7 breast
# MDA-MB-435 = system: MDA-MB-435
# MDA-N = system: MDA-N
# NCI-H226 lung = system: NCI-H226 lung
# NCI-H23 lung = system: NCI-H23 lung
# NCI-H460 lung = system: NCI-H460 lung
# NCI/ADR-RES ovarian = system: NCI/ADR-RES ovarian
# OVCAR-3 ovarian = system: OVCAR-3 ovarian
# OVCAR-4 ovarian = system: OVCAR-4 ovarian
# OVCAR-5 ovarian = system: OVCAR-5 ovarian
# OVCAR-8 ovarian = system: OVCAR-8 ovarian
# PC-3 prostate = system: PC-3 prostate
# RPMI-8226 leukemia = system: RPMI-8226 leukemia
# RXF 393 renal = system: RXF 393 renal
# SF-295 CNS = system: SF-295 CNS
# SK-MEL-2 melanoma = system: SK-MEL-2 melanoma
# SK-MEL-28 melanoma = system: SK-MEL-28 melanoma
# SK-MEL-5 melanoma = system: SK-MEL-5 melanoma
# SK-OV-3 ovarian = system: SK-OV-3 ovarian
# SN12C renal = system: SN12C renal
# SNB-19 CNS = system: SNB-19 CNS
# SNB-75 CNS = system: SNB-75 CNS
# SW-620 colon = system: SW-620 colon
# T-47D breast = system: T-47D breast
# TK-10 renal = system: TK-10 renal
# U251 CNS = system: U251 CNS
# UACC-257 melanoma = system: UACC-257 melanoma
# UACC-62 melanoma = system: UACC-62 melanoma
# HCT-116 colon = system: HCT-116 colon
# HT29 colon = system: HT29 colon
# IGROV1 ovarian = system: IGROV1 ovarian
# K-562 leukemia = system: K-562 leukemia
# MALME-3M melanoma = system: MALME-3M melanoma
# MDA-MB-231 breast = system: MDA-MB-231 breast
# NCI-H522 lung = system: NCI-H522 lung
# SF-268 CNS = system: SF-268 CNS
# SF-539 CNS = system: SF-539 CNS
# SR leukemia = system: SR leukemia
# UO-31 renal = system: UO-31 renal
smiles,measurement,setting,value
CCOC(=O)CCSS(=O)(=O)c1ccccc1,TGI,786-0 renal,63.9 µM
same,TGI,A498 renal,> 100 µM
same,TGI,A549 NSCLC,> 100 µM
same,TGI,ACHN renal,> 100 µM
same,TGI,BT-549 breast,> 100 µM
same,TGI,CAKI-1 renal,> 100 µM
same,TGI,CCRF-CEM leukemia,> 100 µM
same,TGI,COLO 205 colon,> 100 µM
same,TGI,DU-145 prostate,> 100 µM
same,TGI,EKVX NSCLC,> 100 µM
same,TGI,HCC-2998 colon,> 100 µM
same,TGI,HCT-15 colon,> 100 µM
same,TGI,HL-60(TB) leukemia,> 100 µM
same,TGI,HOP-62 NSCLC,> 100 µM
same,TGI,HOP-92 NSCLC,> 100 µM
same,TGI,KM12 colon,> 100 µM
same,TGI,LOX IMVI melanoma,77.4 µM
same,TGI,M14 melanoma,> 100 µM
same,TGI,MCF7 breast,> 100 µM
same,TGI,MDA-MB-435,> 100 µM
same,TGI,MDA-N,> 100 µM
same,TGI,NCI-H226 lung,> 100 µM
same,TGI,NCI-H23 lung,> 100 µM
same,TGI,NCI-H460 lung,> 100 µM
same,TGI,NCI/ADR-RES ovarian,> 100 µM
same,TGI,OVCAR-3 ovarian,> 100 µM
same,TGI,OVCAR-4 ovarian,> 100 µM
same,TGI,OVCAR-5 ovarian,> 100 µM
same,TGI,OVCAR-8 ovarian,> 100 µM
same,TGI,PC-3 prostate,> 100 µM
same,TGI,RPMI-8226 leukemia,99 µM
same,TGI,RXF 393 renal,> 100 µM
same,TGI,SF-295 CNS,> 100 µM
same,TGI,SK-MEL-2 melanoma,> 100 µM
same,TGI,SK-MEL-28 melanoma,> 100 µM
same,TGI,SK-MEL-5 melanoma,> 100 µM
same,TGI,SK-OV-3 ovarian,> 100 µM
same,TGI,SN12C renal,> 100 µM
same,TGI,SNB-19 CNS,> 100 µM
same,TGI,SNB-75 CNS,> 100 µM
same,TGI,SW-620 colon,> 100 µM
same,TGI,T-47D breast,> 100 µM
same,TGI,TK-10 renal,> 100 µM
same,TGI,U251 CNS,> 100 µM
same,TGI,UACC-257 melanoma,> 100 µM
same,TGI,UACC-62 melanoma,> 100 µM
NC(=S)C1=C(N)Oc2c(c(=O)oc3ccccc23)C1c1ccc(Br)cc1 (stereo not drawn),TGI,786-0 renal,> 100 µM
same,TGI,A498 renal,> 100 µM
same,TGI,A549 NSCLC,> 100 µM
same,TGI,ACHN renal,> 100 µM
same,TGI,BT-549 breast,> 100 µM
same,TGI,CAKI-1 renal,> 100 µM
same,TGI,CCRF-CEM leukemia,> 100 µM
same,TGI,COLO 205 colon,> 100 µM
same,TGI,DU-145 prostate,> 100 µM
same,TGI,EKVX NSCLC,> 100 µM
same,TGI,HCC-2998 colon,> 100 µM
same,TGI,HCT-116 colon,> 100 µM
same,TGI,HCT-15 colon,> 100 µM
same,TGI,HL-60(TB) leukemia,> 100 µM
same,TGI,HOP-62 NSCLC,> 100 µM
same,TGI,HOP-92 NSCLC,> 100 µM
same,TGI,HT29 colon,> 100 µM
same,TGI,IGROV1 ovarian,> 100 µM
same,TGI,K-562 leukemia,> 100 µM
same,TGI,LOX IMVI melanoma,> 100 µM
same,TGI,M14 melanoma,> 100 µM
same,TGI,MALME-3M melanoma,> 100 µM
same,TGI,MCF7 breast,> 100 µM
same,TGI,MDA-MB-231 breast,> 100 µM
same,TGI,MDA-MB-435,> 100 µM
same,TGI,MDA-N,> 100 µM
same,TGI,NCI-H23 lung,> 100 µM
same,TGI,NCI-H460 lung,> 100 µM
same,TGI,NCI-H522 lung,> 100 µM
same,TGI,NCI/ADR-RES ovarian,> 100 µM
same,TGI,OVCAR-3 ovarian,> 100 µM
same,TGI,OVCAR-4 ovarian,> 100 µM
same,TGI,OVCAR-5 ovarian,> 100 µM
same,TGI,OVCAR-8 ovarian,> 100 µM
same,TGI,PC-3 prostate,> 100 µM
same,TGI,SF-268 CNS,> 100 µM
same,TGI,SF-295 CNS,> 100 µM
same,TGI,SF-539 CNS,> 100 µM
same,TGI,SK-MEL-2 melanoma,> 100 µM
same,TGI,SK-MEL-28 melanoma,> 100 µM
same,TGI,SK-MEL-5 melanoma,> 100 µM
same,TGI,SK-OV-3 ovarian,> 100 µM
same,TGI,SN12C renal,> 100 µM
same,TGI,SNB-19 CNS,> 100 µM
same,TGI,SNB-75 CNS,> 100 µM
same,TGI,SR leukemia,63.2 µM
same,TGI,SW-620 colon,> 100 µM
same,TGI,TK-10 renal,> 100 µM
same,TGI,U251 CNS,> 100 µM
same,TGI,UACC-257 melanoma,> 100 µM
same,TGI,UACC-62 melanoma,> 100 µM
same,TGI,UO-31 renal,> 100 µM
CC(=O)/C(=C/n1ccc(=O)[nH]c1=S)C(=O)Nc1ccccc1C,TGI,786-0 renal,> 100 µM
same,TGI,A498 renal,> 100 µM
same,TGI,A549 NSCLC,> 100 µM
same,TGI,ACHN renal,> 100 µM
same,TGI,BT-549 breast,> 100 µM
same,TGI,CAKI-1 renal,> 100 µM
same,TGI,COLO 205 colon,> 100 µM
same,TGI,DU-145 prostate,> 100 µM
same,TGI,EKVX NSCLC,> 100 µM
same,TGI,HCC-2998 colon,> 100 µM
same,TGI,HCT-116 colon,> 100 µM
same,TGI,HCT-15 colon,> 100 µM
same,TGI,HL-60(TB) leukemia,> 100 µM
same,TGI,HOP-62 NSCLC,> 100 µM
same,TGI,HOP-92 NSCLC,> 100 µM
same,TGI,HT29 colon,> 100 µM
same,TGI,IGROV1 ovarian,> 100 µM
same,TGI,KM12 colon,> 100 µM
same,TGI,LOX IMVI melanoma,> 100 µM
same,TGI,M14 melanoma,> 100 µM
same,TGI,MCF7 breast,> 100 µM
same,TGI,MDA-MB-231 breast,> 100 µM
same,TGI,MDA-MB-435,> 100 µM
same,TGI,MDA-N,> 100 µM
same,TGI,NCI-H226 lung,> 100 µM
same,TGI,NCI-H23 lung,> 100 µM
same,TGI,NCI-H460 lung,> 100 µM
same,TGI,NCI/ADR-RES ovarian,> 100 µM
same,TGI,OVCAR-3 ovarian,> 100 µM
same,TGI,OVCAR-4 ovarian,> 100 µM
same,TGI,OVCAR-5 ovarian,> 100 µM
same,TGI,OVCAR-8 ovarian,> 100 µM
same,TGI,RXF 393 renal,> 100 µM
same,TGI,SF-268 CNS,> 100 µM
same,TGI,SF-295 CNS,> 100 µM
same,TGI,SF-539 CNS,> 100 µM
same,TGI,SK-MEL-2 melanoma,> 100 µM
same,TGI,SK-MEL-28 melanoma,> 100 µM
same,TGI,SK-MEL-5 melanoma,> 100 µM
same,TGI,SK-OV-3 ovarian,> 100 µM
same,TGI,SN12C renal,> 100 µM
same,TGI,SNB-19 CNS,> 100 µM
same,TGI,SNB-75 CNS,> 100 µM
same,TGI,SW-620 colon,> 100 µM
same,TGI,T-47D breast,> 100 µM
same,TGI,TK-10 renal,> 100 µM
same,TGI,U251 CNS,> 100 µM
same,TGI,UACC-257 melanoma,> 100 µM
same,TGI,UACC-62 melanoma,> 100 µM
same,TGI,UO-31 renal,> 100 µM
